From ChEMBL document CHEMBL3885881, “DrugMatrix”

Species on record: Rattus norvegicus
Assay: DrugMatrix - Regimen: Daily Repeat
Assay type: toxicity, organism-based, Sprague-Dawley
Set-up: regimen Daily Repeat, gender Male, age 6-8 weeks
Details: in vivo, po, 1200 mg/kg, route oral GAVAGE, dose level High, vehicle .5 % CMC; for ABSOLUTE BASOPHIL / ABSOLUTE EOSINOPHIL / ABSOLUTE LYMPHOCYTE / ABSOLUTE MONOCYTE / ABSOLUTE SEGMENTED NEUTROPHIL / BASOPHIL / EOSINOPHIL / ERYTHROCYTE COUNT / HEMATOCRIT / HEMOGLOBIN / LEUKOCYTE COUNT / LYMPHOCYTE / MEAN CORPUSCULAR HEMOGLOBIN / MEAN CORPUSCULAR HEMOGLOBIN CONCENTRATION / MEAN CORPUSCULAR VOLUME / MONOCYTE / NEUTROPHIL / NUCLEATED RED BLOOD CELLS / PLATELET COUNT: tissue Blood; for ALANINE AMINOTRANSFERASE / ALBUMIN / ALKALINE PHOSPHATASE / ASPARTATE AMINOTRANSFERASE / BLOOD UREA NITROGEN / CARBON DIOXIDE / CHLORIDE / CHOLESTEROL / CREATINE PHOSPHOKINASE / CREATININE / GLUCOSE / LACTATE DEHYDROGENASE / LIPASE / PHOSPHORUS / POTASSIUM / SODIUM / TOTAL BILIRUBIN / TOTAL PROTEIN / URIC ACID: tissue Plasma

O=C(C1CCCCC1)N1CC(=O)N2CCc3ccccc3C2C1 (stereo unspecified) [PRAZIQUANTEL]
ABSOLUTE BASOPHIL (72 h, time 3 day): 0 CELLS/uL | ABSOLUTE EOSINOPHIL (72 h, time 3 day): 48 CELLS/uL | ABSOLUTE LYMPHOCYTE (72 h, time 3 day): 14636 CELLS/uL | ABSOLUTE MONOCYTE (72 h, time 3 day): 440 CELLS/uL | ABSOLUTE SEGMENTED NEUTROPHIL (72 h, time 3 day): 1476 CELLS/uL | BASOPHIL (72 h, time 3 day): 0% | EOSINOPHIL (72 h, time 3 day): 0.33% | ERYTHROCYTE COUNT (72 h, time 3 day): 6.1 x10E6/uL | HEMATOCRIT (72 h, time 3 day): 37.8% | HEMOGLOBIN (72 h, time 3 day): 14.07 G/DL | LEUKOCYTE COUNT (72 h, time 3 day): 16.6 x10E3/uL | LYMPHOCYTE (72 h, time 3 day): 88% | MEAN CORPUSCULAR HEMOGLOBIN (72 h, time 3 day): 23.1 pg | MEAN CORPUSCULAR HEMOGLOBIN CONCENTRATION (72 h, time 3 day): 37.23 G/DL | MEAN CORPUSCULAR VOLUME (72 h, time 3 day): 62.03 fL | MONOCYTE (72 h, time 3 day): 2.67% | NEUTROPHIL (72 h, time 3 day): 9% | NUCLEATED RED BLOOD CELLS (72 h, time 3 day): 0 /100WBC | PLATELET COUNT (72 h, time 3 day): 1207 x10E3/uL | ALANINE AMINOTRANSFERASE (72 h, time 3 day): 78.33 u/L | ALBUMIN (72 h, time 3 day): 4.17 G/DL | ALKALINE PHOSPHATASE (72 h, time 3 day): 420.67 u/L | ASPARTATE AMINOTRANSFERASE (72 h, time 3 day): 106 u/L | BLOOD UREA NITROGEN (72 h, time 3 day): 16.67 mg/dL | CARBON DIOXIDE (72 h, time 3 day): 21.67 mmol/L | CHLORIDE (72 h, time 3 day): 106 MEQ/L | CHOLESTEROL (72 h, time 3 day): 113 mg/dL | CREATINE PHOSPHOKINASE (72 h, time 3 day): 468 u/L | CREATININE (72 h, time 3 day): 0.27 mg/dL | GLUCOSE (72 h, time 3 day): 155.33 mg/dL | LACTATE DEHYDROGENASE (72 h, time 3 day): 155.67 u/L | LIPASE (72 h, time 3 day): 12.33 u/L | PHOSPHORUS (72 h, time 3 day): 12.53 mg/dL | POTASSIUM (72 h, time 3 day): 6.11 MEQ/L | SODIUM (72 h, time 3 day): 146.03 MEQ/L | TOTAL BILIRUBIN (72 h, time 3 day): 0.17 mg/dL | TOTAL PROTEIN (72 h, time 3 day): 5.9 G/DL | URIC ACID (72 h, time 3 day): 1.8 mg/dL | ABSOLUTE BASOPHIL (120 h, time 5 day): 0 CELLS/uL | ABSOLUTE EOSINOPHIL (120 h, time 5 day): 0 CELLS/uL | ABSOLUTE LYMPHOCYTE (120 h, time 5 day): 15049.33 CELLS/uL | ABSOLUTE MONOCYTE (120 h, time 5 day): 624 CELLS/uL | ABSOLUTE SEGMENTED NEUTROPHIL (120 h, time 5 day): 1126.67 CELLS/uL | BASOPHIL (120 h, time 5 day): 0% | EOSINOPHIL (120 h, time 5 day): 0% | ERYTHROCYTE COUNT (120 h, time 5 day): 6.07 x10E6/uL | HEMATOCRIT (120 h, time 5 day): 37.33% | HEMOGLOBIN (120 h, time 5 day): 14 G/DL | LEUKOCYTE COUNT (120 h, time 5 day): 16.8 x10E3/uL | LYMPHOCYTE (120 h, time 5 day): 89.67% | MEAN CORPUSCULAR HEMOGLOBIN (120 h, time 5 day): 23.07 pg | MEAN CORPUSCULAR HEMOGLOBIN CONCENTRATION (120 h, time 5 day): 37.53 G/DL | MEAN CORPUSCULAR VOLUME (120 h, time 5 day): 61.5 fL | MONOCYTE (120 h, time 5 day): 3.67% | NEUTROPHIL (120 h, time 5 day): 6.67% | NUCLEATED RED BLOOD CELLS (120 h, time 5 day): 0 /100WBC | PLATELET COUNT (120 h, time 5 day): 1413.33 x10E3/uL | ALANINE AMINOTRANSFERASE (120 h, time 5 day): 57.67 u/L | ALBUMIN (120 h, time 5 day): 4.2 G/DL | ALKALINE PHOSPHATASE (120 h, time 5 day): 351.33 u/L | ASPARTATE AMINOTRANSFERASE (120 h, time 5 day): 77 u/L | BLOOD UREA NITROGEN (120 h, time 5 day): 17.67 mg/dL | CARBON DIOXIDE (120 h, time 5 day): 27.33 mmol/L | CHLORIDE (120 h, time 5 day): 103.67 MEQ/L | CHOLESTEROL (120 h, time 5 day): 102.33 mg/dL | CREATINE PHOSPHOKINASE (120 h, time 5 day): 250.67 u/L | CREATININE (120 h, time 5 day): 0.22 mg/dL | GLUCOSE (120 h, time 5 day): 153 mg/dL | LACTATE DEHYDROGENASE (120 h, time 5 day): 208.67 u/L | LIPASE (120 h, time 5 day): 12.33 u/L | PHOSPHORUS (120 h, time 5 day): 13.13 mg/dL | POTASSIUM (120 h, time 5 day): 7.47 MEQ/L | SODIUM (120 h, time 5 day): 145.47 MEQ/L | TOTAL BILIRUBIN (120 h, time 5 day): 0.17 mg/dL | TOTAL PROTEIN (120 h, time 5 day): 6.33 G/DL | URIC ACID (120 h, time 5 day): 2.3 mg/dL
